From US20100249243A1, “NOVEL BETA-HYDROXYKETONES AND BETA-ALKOXYKETONES WITH ESTROGENIC ACTIVITY” (priority 2007, published 2010)
pIC50: −log10 of the molar value. Where two headings read alike, the source gives them in different places.

Key:
ERα [1] = molecular target: T1, ERα (Homo sapiens, UniProt P03372); assay: ERα luciferase reporter (pERE2TATA-LUC) transactivation assay in transfected HEK293 cells; type: cell-based; set-up: expressed in transfected cells; host or cells: HEK293; details: 24 hours; for ERα receptor activation relative to 10 nM E2 corresponding 100: Table 1, sample concentration 10 μM, mean of at least three independent transfections, SEM typically <15%; for ERα in vitro activity (receptor activation relative to 10 nM E2): Table 2, previously published compounds, test compound 10 μM
T1 sequence (P03372 1-595): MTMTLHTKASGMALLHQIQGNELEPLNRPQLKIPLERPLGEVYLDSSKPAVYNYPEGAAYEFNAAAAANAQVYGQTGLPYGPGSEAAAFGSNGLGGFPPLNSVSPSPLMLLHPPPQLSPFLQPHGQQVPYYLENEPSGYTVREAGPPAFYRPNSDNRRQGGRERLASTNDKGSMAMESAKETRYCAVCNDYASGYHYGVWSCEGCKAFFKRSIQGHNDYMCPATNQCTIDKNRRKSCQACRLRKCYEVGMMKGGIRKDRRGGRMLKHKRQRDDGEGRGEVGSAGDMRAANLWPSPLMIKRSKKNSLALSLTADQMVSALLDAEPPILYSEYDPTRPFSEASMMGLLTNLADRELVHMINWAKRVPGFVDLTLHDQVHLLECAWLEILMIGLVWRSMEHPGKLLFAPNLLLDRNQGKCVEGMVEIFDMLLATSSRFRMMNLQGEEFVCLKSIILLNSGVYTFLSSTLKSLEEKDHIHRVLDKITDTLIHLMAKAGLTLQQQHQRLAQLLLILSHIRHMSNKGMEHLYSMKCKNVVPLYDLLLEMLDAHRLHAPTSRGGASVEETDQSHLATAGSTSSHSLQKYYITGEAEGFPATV
Experimental: (§1) All other reagents were of reagent grade from Sigma or Fluka. One day before transfection, HEK293 cells were seeded in 48-well plates (70×10^3 cells per well) in phenol-free Dulbecco's modified Eagle medium supplemented with 5% delipidated fetal bovine serum (Sigma) and antibiotics. After a medium change, the cells were transfected for 4 hours with 5 ng ERα or ERβ expression vector, 75 ng reporter plasmid pERE2TATA-LUC and 20 ng control plasmid pCMVβ by the calcium phosphate method. After transfection, the cells received fresh medium containing either vehicle (0.1% v/v) or test compound (10 μM). After 24 hours, the cells were washed, lysed and luciferase and β-galactosidase activities were determined from 20 μl of lysates with the Victor^2TM reader (PerkinElmer Wallac, Turku, Finland). […] The data are means±SEM of at least three independent transfections.

ERβ [2] = molecular target: T2, ERβ (Homo sapiens, UniProt Q92731); assay: ERβ luciferase reporter (pERE2TATA-LUC) transactivation assay in transfected HEK293 cells; type: cell-based; set-up: expressed in transfected cells; host or cells: HEK293; details: for Emax at 10 µM: HEK293, 24 h; for ERβ in vitro activity (receptor activation relative to 10 nM E2): Table 2, previously published compounds, test compound 10 μM
Experimental: as §1

ERα [3] = molecular target: T1, ERα; assay: Competitive binding assay against [6,7-3H(N)]estradiol in transiently transfected COS-1 cells, ERα; details: for pIC50: ERα IC50 (median inhibition concentration), competition against labeled E2, COS-1 cells with pSG5-hERα, 2 hours at 37° C.; for ERα RBA (relative binding affinity): in comparison to E2 = 100
Experimental: (§2) Relative binding affinities (RBA) were measured by a competitive assay against [6, 7-^3H(N)]estradiol (PerkinElmer) in transsiently transfected COS-1 cells. […] After 2 hours of incubation at 37° C. the medium was removed. The cells were removed from the wells to 150 μl of 1× phosphate buffered saline (PBS), transferred to Eppendorf tubes and centrifuged at 4° C. using 4000 g for 5 min, and then washed twice with 150 μl of PBS. The cell pellets were dissolved to 50 μl of 0.5M NaOH and incubated for 15 min at 56° C., after which the samples were transferred to liquid twinkle tubes and treated with 3 ml of OptiPhase HiSafe 3 twinkle solution (PerkinElmer).

ERβ [4] = molecular target: T2, ERβ; assay: Competitive binding assay against [6,7-3H(N)]estradiol in transiently transfected COS-1 cells, ERβ; details: for pIC50: ERβ IC50 (median inhibition concentration), competition against labeled E2, COS-1 cells with pSG5-hERβ, 2 hours at 37° C.; for ERβ RBA (relative binding affinity): in comparison to E2 = 100
Experimental: as §2

[5] = read-out: ERβ receptor activation relative to 10 nM E2 corresponding 100, Table 1, sample concentration 10 μM, mean of at least three independent transfections, SEM typically <15%
[6] = read-out: ERβ in vitro activity (receptor activation relative to 10 nM E2), Table 2, previously published compounds, test compound 10 μM

T2 sequence (Q92731 whole entry): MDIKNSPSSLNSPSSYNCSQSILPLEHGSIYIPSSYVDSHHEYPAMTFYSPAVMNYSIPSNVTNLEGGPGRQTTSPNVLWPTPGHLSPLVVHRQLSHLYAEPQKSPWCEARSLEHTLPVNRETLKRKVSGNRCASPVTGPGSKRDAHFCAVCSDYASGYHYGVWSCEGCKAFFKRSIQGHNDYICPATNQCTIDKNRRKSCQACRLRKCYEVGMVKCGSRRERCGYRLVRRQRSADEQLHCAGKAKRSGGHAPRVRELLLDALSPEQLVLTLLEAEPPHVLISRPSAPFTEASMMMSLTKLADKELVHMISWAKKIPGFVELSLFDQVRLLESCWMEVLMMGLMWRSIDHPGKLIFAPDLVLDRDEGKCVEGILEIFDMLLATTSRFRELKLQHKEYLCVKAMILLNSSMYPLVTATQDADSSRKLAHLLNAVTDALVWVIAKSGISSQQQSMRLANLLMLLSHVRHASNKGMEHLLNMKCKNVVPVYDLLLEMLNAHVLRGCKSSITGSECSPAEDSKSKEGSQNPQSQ

SMILES | ERα receptor activation relative to 10 nM E2 corresponding 100 (ERα [1]) | Emax at 10 µM (ERβ [2]; [5]) | pIC50 (ERα [3]) | ERα RBA (relative binding affinity) (ERα [3]) | pIC50 (ERβ [4]) | ERβ RBA (relative binding affinity) (ERβ [4]) | ERα in vitro activity (receptor activation relative to 10 nM E2) (ERα [1]) | Emax at 10 µM (ERβ [2]; [6]) | further results
O=C(CCCc1ccc(O)cc1)CC(O)c1ccccc1 (single isomer, unassigned) [Compound 34a, 1-Hydroxy-6-(4-hydroxy-phenyl)-1-phenyl-hexan-3-one] | 139.2% | 170% | 9.05 | 217.8% | 8.47 | 57.65% |  |  | 
O=C(CCCc1ccc(O)cc1)CC(O)c1ccccc1 (single isomer, unassigned) [Compound 34b, 1-Hydroxy-6-(4-hydroxy-phenyl)-1-phenyl-hexan-3-one] | 140.0% |  | 8.67 | 92.02% | 7.98 | 18.67% |  |  | ERβ receptor activation relative to 10 nM E2 corresponding 100 (ERβ [2]; Table 1, sample concentration 10 μM, 24 hours, mean of at least three independent transfections, SEM typically <15%): 155.3%
O=C(CCc1ccc(O)cc1)CC(O)Cc1ccccc1 (stereo not shown) [Compound 31ab, 5-Hydroxy-1-(4-hydroxy-phenyl)-6-phenyl-hexan-3-one] | 55.0% | 107% | 5.10 | 0.025% | 5.90 | 0.157% |  |  | 
CC(O)(CC(=O)CCCc1ccccc1)c1ccccc1 (stereo not shown) [Compound 36ab, 6-Hydroxy-1,6-diphenyl-heptan-4-one] | 83.3% | 15.1% | 6.09 | 0.242% | 5.69 | 0.096% |  |  | 
O=C(CCCc1ccc(O)cc1)CC(O)Cc1ccccc1 (stereo not shown) [Compound 40ab, 2-Hydroxy-7-(4-hydroxy-phenyl)-1-phenyl-heptan-4-one] | 105.2% | 82.3% | 6.98 | 1.867% | 5.97 | 0.181% |  |  | 
COC(CC(=O)CCc1ccccc1)Cc1ccccc1 (stereo not shown) [Compound 46ab, 5-Methoxy-1,6-diphenyl-hexan-3-one] | 9.9% | 1.3% |  |  |  |  |  |  | 
COc1ccc(CC(CC(=O)CCc2ccccc2)OC)cc1 (stereo not shown) [Compound 47ab, 5-Methoxy-6-(4-methoxyphenyl)-1-phenyl-hexan-3-one] | 28.5% | 4% |  |  |  |  |  |  | 
COC(CC(=O)CCc1ccccc1)Cc1ccc(F)cc1 (stereo not shown) [Compound 48ab, 5-Methoxy-6-(4-fluorophenyl)-1-phenyl-hexan-3-one] | 33.1% | 11.2% |  |  |  |  |  |  | 
COC(CC(=O)CCc1ccccc1)Cc1cccc2ccccc12 (stereo not shown) [Compound 49ab, 5-Methoxy-6-naphthalen-1-yl-1-phenyl-hexan-3-one] | 35.5% | 2% |  |  |  |  |  |  | 
COC(CC(=O)CCc1ccccc1)Cc1ccc2ccccc2c1 (stereo not shown) [Compound 50ab, 5-Methoxy-6-naphthalen-2-yl-1-phenyl-hexan-3-one] | 30.4% | 12.4% |  |  |  |  |  |  | 
COC(CC(=O)CCCc1ccccc1)Cc1ccccc1 (stereo not shown) [Compound 51ab, 2-Methoxy-1,7-diphenyl-heptan-4-one] | 24.5% | 30.4% |  |  |  |  |  |  | 
COC(CCc1ccccc1)CC(=O)CCCc1ccccc1 (stereo not shown) [Compound 52ab, 3-Methoxy-1,8-diphenyl-octan-5-one] | 3.1% | -14.6% |  |  |  |  |  |  | 
O=C(CC(O)Cc1ccccc1)c1ccccc1 (stereo not shown) [Compound 53ab, 3-Hydroxy-1,4-diphenyl-butan-1-one] |  |  |  |  |  |  | 5.3% | 16.9% | 
O=C(Cc1ccccc1)CC(O)c1ccccc1 (stereo not shown) [Compound 55ab, 4-Hydroxy-1,4-diphenyl-butan-2-one] |  |  |  |  |  |  | 0.8% | 1.6% | 

Continued, in another order:

ERα receptor activation relative to 10 nM E2 corresponding 100 (ERα [1]) | Emax at 10 µM (ERβ [2]; [5]) | pIC50 (ERα [3]) | ERα RBA (relative binding affinity) (ERα [3]) | pIC50 (ERβ [4]) | ERβ RBA (relative binding affinity) (ERβ [4]) | ERα in vitro activity (receptor activation relative to 10 nM E2) (ERα [1]) | Emax at 10 µM (ERβ [2]; [6]) | SMILES | further results
 |  | 5.77 | 0.115% | 5.96 | 0.180% | 91.4% |  | O=C(CCCc1ccccc1)CC(O)c1ccccc1 (single isomer, unassigned) [Compound 59a, 1-Hydroxy-1,6-diphenyl-hexan-3-one] | ERβ in vitro activity (receptor activation relative to 10 nM E2) (ERβ [2]; 24 hours): 147.3%
 |  | 5.66 | 0.090% | 4.96 | 0.018% | 59.3% |  | O=C(CCCc1ccccc1)CC(O)c1ccccc1 (single isomer, unassigned) [Compound 59b, 1-Hydroxy-1,6-diphenyl-hexan-3-one] | ERβ in vitro activity (receptor activation relative to 10 nM E2) (ERβ [2]; 24 hours): 28.2%
 |  |  |  |  |  | 52.1% | 38.4% | CC(O)(CC(=O)CCc1ccccc1)c1ccccc1 (stereo not shown) [Compound 57ab, 5-Hydroxy-1,5-diphenyl-hexan-3-one] | 
 |  |  |  |  |  | 12.8% | 0.4% | O=C(CCc1ccccc1)CC(O)Cc1ccccc1 (stereo not shown) [Compound 58ab, 5-Hydroxy-1,6-diphenyl-hexan-3-one] | 
 |  |  |  |  |  | 83.3% | 15.1% | CC(O)(CC(=O)CCCc1ccccc1)c1ccccc1 (stereo not shown) [Compound 60ab, 6-Hydroxy-1,6-diphenyl-heptan-4-one] | 
 |  |  |  |  |  | 0.3% | 18.4% | COC(CC(=O)c1ccccc1)Cc1ccccc1 (stereo not shown) [Compound 61ab, 3-Methoxy-1,4-diphenyl-butan-1-one] | 
 |  |  |  |  |  | 38.1% | 28.8% | COC(CCc1ccccc1)CC(=O)c1ccccc1 (stereo not shown) [Compound 62ab, 3-Methoxy-1,5-diphenyl-pentan-1-one] | 
